Assay results reported in PubChem BioAssay AID1963837 (Molecular Pharmacology Branch, DTP, NCI, 2024).

Tested on: 843126-344-R-J1-PDC complex spheroid viability
Experiment: Anticancer human tumor 843126-344-R-J1-PDC patient-derived melanoma cell line growth inhibition [POLQ]
Conditions: for IC50: curve of first compound; for viability, T/C: stronger effect = lower value
Summary of the method: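 Growth inhibition in 3D: complex spheroids (tumor PDC, HUVEC, MSC) treated with POLQ inhibitor combinations; where Cmax unknown, highest tested concentration 10 microM, except SN-38 at 1 microM.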

[1] = second compound 0.0316 µM, first compound 0.0316 µM
[2] = second compound 0.0316 µM, first compound 0.1 µM
[3] = second compound 0.0316 µM, first compound 0.316 µM
[4] = second compound 0.0316 µM, first compound 1 µM
[5] = second compound 0.0316 µM, first compound 3.16 µM
[6] = second compound 0.0316 µM, first compound 10 µM
[7] = second compound 0.1 µM, first compound 0.0316 µM
[8] = second compound 0.1 µM, first compound 0.1 µM
[9] = second compound 0.1 µM, first compound 0.316 µM
[10] = second compound 0.1 µM, first compound 1 µM
[11] = second compound 0.1 µM, first compound 3.16 µM
[12] = second compound 0.1 µM, first compound 10 µM
[13] = second compound 0.316 µM, first compound 0.0316 µM
[14] = second compound 0.316 µM, first compound 0.1 µM
[15] = second compound 0.316 µM, first compound 0.316 µM
[16] = second compound 0.316 µM, first compound 1 µM
[17] = second compound 0.316 µM, first compound 3.16 µM
[18] = second compound 0.316 µM, first compound 10 µM
[19] = second compound 1 µM, first compound 0.0316 µM
[20] = second compound 1 µM, first compound 0.1 µM
[21] = second compound 1 µM, first compound 0.316 µM
[22] = second compound 1 µM, first compound 1 µM
[23] = second compound 1 µM, first compound 3.16 µM
[24] = second compound 1 µM, first compound 10 µM
[25] = second compound 3.16 µM, first compound 0.0316 µM
[26] = second compound 3.16 µM, first compound 0.1 µM
[27] = second compound 3.16 µM, first compound 0.316 µM
[28] = second compound 3.16 µM, first compound 1 µM
[29] = second compound 3.16 µM, first compound 3.16 µM
[30] = second compound 3.16 µM, first compound 10 µM
[31] = second compound 10 µM, first compound 0.0316 µM
[32] = second compound 10 µM, first compound 0.1 µM
[33] = second compound 10 µM, first compound 0.316 µM
[34] = second compound 10 µM, first compound 1 µM
[35] = second compound 10 µM, first compound 3.16 µM
[36] = second compound 10 µM, first compound 10 µM
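For viability, T/C in this document: spheroids exposed to drugs for seven days before readout.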

Compound: CC(C)n1c(=O)n(C)c2cnc3cc(F)c(-c4ccc(OCCCN5CCCCC5)nc4)cc3c21 + Cc1cccc(N(C)C(=O)C2C(O)CCN2c2nc(C)cc(C(F)(F)F)c2C#N)c1
- IC50 (second compound 0.0316 µM): > 10 µM
- IC50 (second compound 0.1 µM): > 10 µM
- IC50 (second compound 0.316 µM): > 10 µM
- IC50 (second compound 1 µM): > 10 µM
- IC50 (second compound 3.16 µM): > 10 µM
- IC50 (second compound 10 µM): > 10 µM
- viability, T/C [1]: 100%
- viability, T/C [2]: 87.7%
- viability, T/C [3]: 97.2%
- viability, T/C [4]: 78.7%
- viability, T/C [5]: 93%
- viability, T/C [6]: 60.5%
- viability, T/C [7]: 90.1%
- viability, T/C [8]: 104%
- viability, T/C [9]: 72.7%
- viability, T/C [10]: 83.1%
- viability, T/C [11]: 78.1%
- viability, T/C [12]: 67.1%
- viability, T/C [13]: 92%
- viability, T/C [14]: 96.9%
- viability, T/C [15]: 88.7%
- viability, T/C [16]: 89.8%
- viability, T/C [17]: 87.2%
- viability, T/C [18]: 55.1%
- viability, T/C [19]: 98.3%
- viability, T/C [20]: 78%
- viability, T/C [21]: 86.7%
- viability, T/C [22]: 78.5%
- viability, T/C [23]: 81%
- viability, T/C [24]: 64.3%
- viability, T/C [25]: 94.8%
- viability, T/C [26]: 84.5%
- viability, T/C [27]: 106%
- viability, T/C [28]: 99.1%
- viability, T/C [29]: 91.9%
- viability, T/C [30]: 73.1%
- viability, T/C [31]: 93.4%
- viability, T/C [32]: 90.2%
- viability, T/C [33]: 89.1%
- viability, T/C [34]: 77.9%
- viability, T/C [35]: 81.9%
- viability, T/C [36]: 61.2%

Compound: CNCc1ccc(-c2[nH]c3cc(F)cc4c3c2CCNC4=O)cc1 + Cc1cccc(N(C)C(=O)C2C(O)CCN2c2nc(C)cc(C(F)(F)F)c2C#N)c1
- IC50 (second compound 0.0316 µM): > 10 µM
- IC50 (second compound 0.1 µM): > 10 µM
- IC50 (second compound 0.316 µM): > 10 µM
- IC50 (second compound 1 µM): > 10 µM
- IC50 (second compound 3.16 µM): > 10 µM
- IC50 (second compound 10 µM): > 10 µM
- viability, T/C [1]: 76.6%
- viability, T/C [2]: 84.1%
- viability, T/C [3]: 75.3%
- viability, T/C [4]: 91%
- viability, T/C [5]: 79.4%
- viability, T/C [6]: 79.2%
- viability, T/C [7]: 84.7%
- viability, T/C [8]: 77%
- viability, T/C [9]: 95.7%
- viability, T/C [10]: 73.5%
- viability, T/C [11]: 87.3%
- viability, T/C [12]: 64.5%
- viability, T/C [13]: 85.3%
- viability, T/C [14]: 98%
- viability, T/C [15]: 82.6%
- viability, T/C [16]: 90.2%
- viability, T/C [17]: 77.3%
- viability, T/C [18]: 69.7%
- viability, T/C [19]: 68.9%
- viability, T/C [20]: 87.2%
- viability, T/C [21]: 95.7%
- viability, T/C [22]: 82.4%
- viability, T/C [23]: 94.6%
- viability, T/C [24]: 64.3%
- viability, T/C [25]: 79.8%
- viability, T/C [26]: 83.4%
- viability, T/C [27]: 83.6%
- viability, T/C [28]: 85.2%
- viability, T/C [29]: 87.5%
- viability, T/C [30]: 72.9%
- viability, T/C [31]: 82.5%
- viability, T/C [32]: 76.9%
- viability, T/C [33]: 76.9%
- viability, T/C [34]: 90.5%
- viability, T/C [35]: 88.3%
- viability, T/C [36]: 74.9%

Compound: COc1ccc([C@@H](O)c2cc(-c3ncnc4cc(N5CCOCC5)ccc34)c(F)cc2Cl)nn1 + Cc1cccc(N(C)C(=O)C2C(O)CCN2c2nc(C)cc(C(F)(F)F)c2C#N)c1
- IC50 (second compound 0.0316 µM): > 10 µM
- IC50 (second compound 0.1 µM): > 10 µM
- IC50 (second compound 0.316 µM): > 10 µM
- IC50 (second compound 1 µM): > 10 µM
- IC50 (second compound 3.16 µM): > 10 µM
- IC50 (second compound 10 µM): > 10 µM
- viability, T/C [1]: 95.1%
- viability, T/C [2]: 76.6%
- viability, T/C [3]: 93.3%
- viability, T/C [4]: 96.9%
- viability, T/C [5]: 81%
- viability, T/C [6]: 63.5%
- viability, T/C [7]: 85.2%
- viability, T/C [8]: 92.7%
- viability, T/C [9]: 86.4%
- viability, T/C [10]: 99.2%
- viability, T/C [11]: 93.2%
- viability, T/C [12]: 63.3%
- viability, T/C [13]: 103%
- viability, T/C [14]: 102%
- viability, T/C [15]: 92.2%
- viability, T/C [16]: 102%
- viability, T/C [17]: 76.9%
- viability, T/C [18]: 80.9%
- viability, T/C [19]: 79.2%
- viability, T/C [20]: 101%
- viability, T/C [21]: 69.6%
- viability, T/C [22]: 86.6%
- viability, T/C [23]: 79.8%
- viability, T/C [24]: 68.1%
- viability, T/C [25]: 81.2%
- viability, T/C [26]: 89.1%
- viability, T/C [27]: 92.7%
- viability, T/C [28]: 81.9%
- viability, T/C [29]: 97.4%
- viability, T/C [30]: 65.6%
- viability, T/C [31]: 74.1%
- viability, T/C [32]: 83.5%
- viability, T/C [33]: 70.2%
- viability, T/C [34]: 66%
- viability, T/C [35]: 77.4%
- viability, T/C [36]: 64.1%

Compound: Cn1ncnc1[C@H]1c2n[nH]c(=O)c3cc(F)cc(c23)N[C@@H]1c1ccc(F)cc1 + Cc1cccc(N(C)C(=O)C2C(O)CCN2c2nc(C)cc(C(F)(F)F)c2C#N)c1
- IC50 (second compound 0.0316 µM): > 0.1 µM
- IC50 (second compound 0.1 µM): > 0.1 µM
- IC50 (second compound 0.316 µM): > 0.1 µM
- IC50 (second compound 1 µM): > 0.1 µM
- IC50 (second compound 3.16 µM): > 0.1 µM
- IC50 (second compound 10 µM): > 0.1 µM
- viability, T/C (second compound 0.0316 µM, first compound 0.000316 µM): 83.1%
- viability, T/C (second compound 0.0316 µM, first compound 0.001 µM): 80%
- viability, T/C (second compound 0.0316 µM, first compound 0.00316 µM): 92.3%
- viability, T/C (second compound 0.0316 µM, first compound 0.01 µM): 74.1%
- viability, T/C [1]: 91.9%
- viability, T/C [2]: 71.8%
- viability, T/C (second compound 0.1 µM, first compound 0.000316 µM): 94.8%
- viability, T/C (second compound 0.1 µM, first compound 0.001 µM): 91.6%
- viability, T/C (second compound 0.1 µM, first compound 0.00316 µM): 96.6%
- viability, T/C (second compound 0.1 µM, first compound 0.01 µM): 73%
- viability, T/C [7]: 88.7%
- viability, T/C [8]: 66%
- viability, T/C (second compound 0.316 µM, first compound 0.000316 µM): 82.8%
- viability, T/C (second compound 0.316 µM, first compound 0.001 µM): 82.5%
- viability, T/C (second compound 0.316 µM, first compound 0.00316 µM): 89.5%
- viability, T/C (second compound 0.316 µM, first compound 0.01 µM): 86.3%
- viability, T/C [13]: 88.7%
- viability, T/C [14]: 86.5%
- viability, T/C (second compound 1 µM, first compound 0.000316 µM): 73.2%
- viability, T/C (second compound 1 µM, first compound 0.001 µM): 67.6%
- viability, T/C (second compound 1 µM, first compound 0.00316 µM): 92.6%
- viability, T/C (second compound 1 µM, first compound 0.01 µM): 86.8%
- viability, T/C [19]: 76.4%
- viability, T/C [20]: 78.6%
- viability, T/C (second compound 3.16 µM, first compound 0.000316 µM): 67.4%
- viability, T/C (second compound 3.16 µM, first compound 0.001 µM): 78.7%
- viability, T/C (second compound 3.16 µM, first compound 0.00316 µM): 88.9%
- viability, T/C (second compound 3.16 µM, first compound 0.01 µM): 77.6%
- viability, T/C [25]: 87.5%
- viability, T/C [26]: 67.3%
- viability, T/C (second compound 10 µM, first compound 0.000316 µM): 76.3%
- viability, T/C (second compound 10 µM, first compound 0.001 µM): 87.8%
- viability, T/C (second compound 10 µM, first compound 0.00316 µM): 84.2%
- viability, T/C (second compound 10 µM, first compound 0.01 µM): 77.4%
- viability, T/C [31]: 86.2%
- viability, T/C [32]: 79.9%
